Data taken from US20220298510A1, “COMPOUNDS AND METHODS FOR INHIBITING CANCERS VIA REST INHIBITION” (Icahn School of Medicine at Mount Sinai, priority 2019, published 2022).

Key:
ATRX IFF NB cells = experiment: Proliferation (Incucyte, percent confluence normalized to DMSO) of ATRX IFF NB cells; format: cell-based, human; settings: proliferation IC50 curves, day 12 (FIG. 11a)
From the text: GAPDH used as a loading control. […] Percent confluence normalized to DMSO for each condition and plotted at day 12. Values normalized mean n±SD (n=3). Statistical significance assessed using student's unpaired t-test with each cell line compared to DMSO (* indicates p<0.05). […] Percent AV positive cells plotted, values are mean n±SD (n=3). Statistical significance assessed using student's unpaired t-test with each cell line compared to DMSO (* indicates p<0.05). (d) Tumor volume measurements of CHLA-90 cells subcutaneously injected into immunocompromised mice. Mice were treated with vehicle or UNC1999 at 300 mg/kg of body weight for 25 days, values mean n±SEM (n=9). Statistical significance assessed using student's unpaired t-test compared to vehicle (* indicates p<0.001). […]
Proliferation evaluated using the […] […] IC50 for each cell line calculated in Prism. […] Statistical significance assessed using student's unpaired t-test with each cell line compared to DMSO (* indicates p<0.05). […] Proliferation assessed in the same manner as (a). Statistical significance assessed using student's unpaired t-test with each cell line compared to DMSO (* indicates p<0.05). […] AV staining assessed in the same manner as (b). […] Proliferation assessed in the same manner as (a). […] AV staining assessed in the same manner as (b).
GAPDH used as a loading control. […] Proliferation evaluated using the Incucyte™ Life-Cell Imaging System. […]

CHLA-90 xenografts = CHLA-90 xenografts in immunocompromised mice; format: in vivo; settings: 300 mg/kg of body weight, 25 days
From the text: GAPDH used as a loading control. […] Percent confluence normalized to DMSO for each condition and plotted at day 12. Values normalized mean n±SD (n=3). Statistical significance assessed using student's unpaired t-test with each cell line compared to DMSO (* indicates p<0.05). […] Percent AV positive cells plotted, values are mean n±SD (n=3). Statistical significance assessed using student's unpaired t-test with each cell line compared to DMSO (* indicates p<0.05). (d) Tumor volume measurements of CHLA-90 cells subcutaneously injected into immunocompromised mice. Mice were treated with vehicle or UNC1999 at 300 mg/kg of body weight for 25 days, values mean n±SEM (n=9). Statistical significance assessed using student's unpaired t-test compared to vehicle (* indicates p<0.001). (e) Tumor weight measurement from xenografts collected in (d), values mean n±SEM (n=9). Images of excised tumors underneath (* indicates p<0.001). (f) Immunoblots for H3K27me3 from acid extracted histones derived from vehicle and treated xenografts. H4 and histones used as loading controls.

SMILES	sensitivity of ATRX IFF NB cells compared to other NB subtypes (ATRX IFF NB cells)	tumor growth and volume compared to vehicle-treated tumors (CHLA-90 xenografts)
CCN(c1cc(-c2ccc(CN3CCOCC3)cc2)cc(C(=O)NCc2c(C)cc(C)[nH]c2=O)c1C)C1CCOCC1 [EPZ-6438, Tazemetostat]	5-10 fold	
CCCc1cc(C)[nH]c(=O)c1CNC(=O)c1cc(-c2ccc(N3CCN(C(C)C)CC3)nc2)cc2c1cnn2C(C)C [UNC1999]		significant reduction
